Here are results for 20 compounds from ChEMBL document CHEMBL3627701, “(2-Arylethenyl)-1,3,5-triazin-2-amines as a novel histamine H4 receptor ligands” (Eur J Med Chem, 2015).

Activity calls are given as the source filed them. No cut-off for these calls is given here. Bounds are passed on as bounds.

Series [1] concerns the target T1, Histamine H4 receptor (Homo sapiens, UniProt Q9H3N8). The series is described as follows: Displacement of [3H]histamine from human H4 receptor expressed in Sf9 cell membranes co-expressing Galphai2 and Gbeta1gamma2 after 60 mins by liquid scintillation counting assay. The series is classed as cell-based. Background: Loss of bound radioactivity is the signal in a displacement assay; it reports binding, not function.

Series [2] is described as follows: Antiproliferative activity against human IMR32 cells assessed as inhibition of cell viability after 48 hrs. The series is classed as cell-based. The note with it: IMR-32, 48 h.
Series [3] has as its target T1, Histamine H4 receptor. Briefly: Antagonist activity at human H4R expressed in CHO cells assessed as inhibition of forskolin-induced cAMP accumulation after 30 mins by TR-FRET immunoassay. The class given is functional, cell-based. Background: Cyclic AMP is a second messenger, typically raised through Gs and lowered through Gi signalling.
Series [4] relates to Mus musculus. The series is described as follows: Antiinflammatory activity in albino Swiss mouse assessed as inhibition of carrageenan-induced paw edema at 25 mg/kg, po administered prior to carrageenan challenge measured after 1 to 3 hrs by plethysmometry relative to control. The series is classed as functional. (In general: In the carrageenan paw model, swelling and tenderness develop within hours.)

The subject of series [5] is Mus musculus. Briefly: Antiinflammatory activity in albino Swiss mouse assessed as inhibition of carrageenan-induced paw edema at 50 mg/kg, po administered prior to carrageenan challenge measured after 1 to 3 hrs by plethysmometry relative to control. The series is classed as functional.
The target in series [6] is Histamine H3 receptor (Homo sapiens) (UniProt Q9Y5N1). The series is described as follows: Displacement of [3H]-N-alpha-methylhistamine from human H3 receptor expressed in HEK293 cells at >=30 uM after 60 mins by liquid scintillation counter assay. The series is classed as cell-based.
Histamine H3 receptor (Homo sapiens), sequence (Q9Y5N1 whole entry): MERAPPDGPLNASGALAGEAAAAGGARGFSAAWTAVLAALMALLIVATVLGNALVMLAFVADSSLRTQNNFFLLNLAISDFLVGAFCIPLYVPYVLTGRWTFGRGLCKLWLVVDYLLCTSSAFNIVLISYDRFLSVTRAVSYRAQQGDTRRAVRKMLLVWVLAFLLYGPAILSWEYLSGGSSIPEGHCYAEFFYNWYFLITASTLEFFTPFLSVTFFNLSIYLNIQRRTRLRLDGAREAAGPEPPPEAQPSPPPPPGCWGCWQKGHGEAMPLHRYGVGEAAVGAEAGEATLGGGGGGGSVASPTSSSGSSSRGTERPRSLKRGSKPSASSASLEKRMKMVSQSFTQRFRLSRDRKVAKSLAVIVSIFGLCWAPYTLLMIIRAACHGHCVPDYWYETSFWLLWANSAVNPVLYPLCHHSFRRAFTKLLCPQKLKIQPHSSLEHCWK
Series [7] deals with Mus musculus. Briefly: Antiinflammatory activity in albino Swiss mouse assessed as inhibition of carrageenan-induced paw edema at 50 mg/kg, po administered prior to carrageenan challenge measured after 3 hrs by plethysmometry relative to control. The series is classed as functional.
The subject of series [8] is Mus musculus. The series is described as follows: Antiinflammatory activity in albino Swiss mouse assessed as inhibition of carrageenan-induced paw edema at 25 mg/kg, po administered prior to carrageenan challenge measured after 3 hrs by plethysmometry relative to control. The series is classed as functional.
Series [9] relates to Mus musculus. The series is described as follows: Antiinflammatory activity in albino Swiss mouse assessed as inhibition of carrageenan-induced paw edema at 10 mg/kg, po administered prior to carrageenan challenge measured after 2 hrs by plethysmometry relative to control. The class given is functional.
In series [10] the test system is Mus musculus. The series is described as follows: Antiinflammatory activity in albino Swiss mouse assessed as inhibition of carrageenan-induced paw edema at 10 mg/kg, po administered prior to carrageenan challenge measured after 3 hrs by plethysmometry relative to control. The series is classed as functional.
Series [11] relates to Mus musculus. The series is described as follows: Antiinflammatory activity in albino Swiss mouse assessed as inhibition of carrageenan-induced paw edema at 10 mg/kg, po administered prior to carrageenan challenge measured after 1 hr by plethysmometry relative to control. The series is classed as functional.
Series [12] has as its system Mus musculus. The series is described as follows: Antiinflammatory activity in albino Swiss mouse assessed as inhibition of carrageenan-induced paw edema at 25 mg/kg, po administered prior to carrageenan challenge measured after 1 hr by plethysmometry relative to control. The class given is functional.
Series [13] concerns Mus musculus. Briefly: Antiinflammatory activity in albino Swiss mouse assessed as inhibition of carrageenan-induced paw edema at 50 mg/kg, po administered prior to carrageenan challenge measured after 2 hrs by plethysmometry relative to control. The series is classed as functional.
The subject of series [14] is Mus musculus. Briefly: Antiinflammatory activity in albino Swiss mouse assessed as inhibition of carrageenan-induced paw edema at 50 mg/kg, po administered prior to carrageenan challenge measured after 1 hr by plethysmometry relative to control. The series is classed as functional.
In series [15] the test system is Mus musculus. Briefly: Antiinflammatory activity in albino Swiss mouse assessed as inhibition of carrageenan-induced paw edema at 25 mg/kg, po administered prior to carrageenan challenge measured after 2 hrs by plethysmometry relative to control. The series is classed as functional.
Series [16] concerns Liver microsome. Briefly: Retention time in human liver microsomes at 50 uM after 48 hrs by LC-MS analysis. The series is classed as ADME.
Series [17] relates to Liver microsome. Briefly: Drug level in human liver microsomes treated with 50 uM 4-[(E)-2-(3-chlorophenyl)ethenyl]-6-(4-methylpiperazin-1-yl)-1,3,5-triazin-2-amine assessed as compound formation after 48 hrs by LC-MS analysis. The class given is ADME.
The nature of series [18]: Antiproliferative activity against human IMR32 cells assessed as inhibition of cell viability at 0.01 to 250 uM after 48 hrs. The conditions noted are these: imr-32, 48 h. The series is classed as cell-based.
The test system of a further series is Salmonella typhimurium. The series is described as follows: Genotoxicity in Salmonella typhimurium TA98 at 1 to 100 uM after 48 hrs by MPF assay. The note with it: salmonella enterica subsp. enterica serovar typhimurium. The series is classed as toxicity, organism-based.
Series [19] concerns the target T2, Histamine H4 receptor (Mus musculus, UniProt Q91ZY2).
T2 sequence (Q91ZY2 whole entry): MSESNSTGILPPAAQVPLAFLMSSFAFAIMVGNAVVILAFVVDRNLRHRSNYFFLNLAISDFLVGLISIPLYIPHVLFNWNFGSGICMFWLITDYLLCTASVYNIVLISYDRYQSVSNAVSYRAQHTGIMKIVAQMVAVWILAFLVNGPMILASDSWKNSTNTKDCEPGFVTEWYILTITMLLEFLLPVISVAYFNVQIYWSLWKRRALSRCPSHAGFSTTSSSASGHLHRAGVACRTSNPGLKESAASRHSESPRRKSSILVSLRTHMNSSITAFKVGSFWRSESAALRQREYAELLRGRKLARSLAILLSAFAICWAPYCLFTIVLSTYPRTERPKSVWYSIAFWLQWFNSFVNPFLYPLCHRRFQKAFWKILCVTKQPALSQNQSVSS
The series is described as follows: Displacement of [3H]histamine from mouse H4 receptor expressed in HEK293 cell membranes co-expressing Galphai2 and Gbeta1gamma2 after 1 hr by liquid scintillation counting assay.

Series [20] deals with Mus musculus. Briefly: Antiinflammatory activity in albino Swiss mouse assessed as inhibition of carrageenan-induced paw edema at 10 mg/kg, po administered prior to carrageenan challenge measured after 1 to 3 hrs by plethysmometry relative to control. The class given is functional.
For the next series, the target named is CYP3A4 (Homo sapiens, UniProt P08684). The series is described as follows: Inhibition of human recombinant CYP3A4 assessed as conversion of luciferin-PPXE to D-luciferin at 25 uM by luminescence Glo assay relative to control. The class given is ADME. The conditions noted are these: recombinant CYP3A4, probe luciferin-PPXE.
CYP3A4, sequence (P08684 whole entry): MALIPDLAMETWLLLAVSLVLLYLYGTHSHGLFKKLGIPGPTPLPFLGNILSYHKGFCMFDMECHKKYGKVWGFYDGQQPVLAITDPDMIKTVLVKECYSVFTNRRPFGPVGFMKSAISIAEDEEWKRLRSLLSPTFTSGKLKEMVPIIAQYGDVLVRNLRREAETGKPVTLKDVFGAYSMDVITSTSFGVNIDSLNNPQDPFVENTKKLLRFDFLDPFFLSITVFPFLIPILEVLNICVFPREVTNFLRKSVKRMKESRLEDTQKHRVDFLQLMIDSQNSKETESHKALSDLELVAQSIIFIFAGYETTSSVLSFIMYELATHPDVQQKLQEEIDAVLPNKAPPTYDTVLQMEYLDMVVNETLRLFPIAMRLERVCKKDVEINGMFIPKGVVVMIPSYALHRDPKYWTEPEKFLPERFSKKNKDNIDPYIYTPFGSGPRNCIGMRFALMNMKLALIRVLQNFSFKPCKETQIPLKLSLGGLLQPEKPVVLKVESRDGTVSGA
Series [21] can be described thus: Ratio of IC50 for doxorubicin to antiproliferative activity for test compound against human IMR32 cells. The series is classed as cell-based, IMR-32. The conditions noted are these: read-out: Ratio IC50.
Series [22] has as its system Liver microsome. The series is described as follows: Drug metabolism in human liver microsomes assessed as metabolite M1 formation at 50 uM after 48 hrs by LC-MS analysis. The class given is ADME.
In series [23] the test system is Liver microsome. The series is described as follows: Drug metabolism in human liver microsomes assessed as metabolite M2 formation at 50 uM after 48 hrs by LC-MS analysis. The class given is ADME.
The subject of a further series is HEK293. Briefly: Antiproliferative activity against HEK293 cells assessed as inhibition of cell viability at 0.01 to 250 uM after 48 hrs. The class given is cell-based. The note with it: human, hek293, 48 h.

T1 sequence (Q9H3N8 whole entry): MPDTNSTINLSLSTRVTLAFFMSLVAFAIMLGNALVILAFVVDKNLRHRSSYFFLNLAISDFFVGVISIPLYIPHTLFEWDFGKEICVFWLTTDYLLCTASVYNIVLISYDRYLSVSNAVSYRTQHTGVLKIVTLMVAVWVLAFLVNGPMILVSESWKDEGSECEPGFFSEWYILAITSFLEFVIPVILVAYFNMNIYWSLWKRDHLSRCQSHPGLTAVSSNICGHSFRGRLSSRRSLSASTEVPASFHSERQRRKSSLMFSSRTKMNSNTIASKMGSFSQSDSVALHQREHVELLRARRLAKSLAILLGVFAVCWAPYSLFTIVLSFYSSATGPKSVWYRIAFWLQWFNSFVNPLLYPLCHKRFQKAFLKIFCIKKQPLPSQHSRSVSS

`CN1CCN(c2nc(N)nc(/C=C/c3cccc(F)c3)n2)CC1` yielded an inhibition constant (Ki) at Histamine H4 receptor [1] of 3520 nM.
The same measure, in the same setting: as for `CN1CCN(c2nc(N)nc(/C=C/c3cccc(Br)c3)n2)CC1`, the figure is 1140 nM.
As for `COc1cccc2c1C(=O)c1c(O)c3c(c(O)c1C2=O)C[C@@](O)(C(=O)CO)C[C@@H]3O[C@H]1C[C@H](N)[C@H](O)[C@H](C)O1` [DOXORUBICIN], the IC50 in series [2] was 5.1 nM.
Take `CN1CCN(c2nc(N)nc(/C=C/c3ccccc3)n2)CC1`: the inhibition constant (Ki) on Histamine H4 receptor [1] was found to be 5210 nM.
As for `Cc1cccc(/C=C/c2nc(N)nc(N3CCN(C)CC3)n2)c1`, the 50% inhibitory concentration (IC50) on Histamine H4 receptor [3] worked out at 606 nM. Further, the inhibition in vivo at 25 mg/kg in the series on Mus musculus [4] was 53%. Further, the inhibition in vivo at 50 mg/kg in the series with Mus musculus [5] was 88%. On Histamine H4 receptor [1], the inhibition constant Ki was found to be 703 nM. Besides, in series [6], the inhibition result was “Active”.
For `CC(C(=O)O)c1cccc(C(=O)c2ccccc2)c1` (stereo unspecified) [KETOPROFEN], the inhibition in vivo at 50 mg/kg in the series with Mus musculus [7] amounted to 77%; in the series on Mus musculus [13], 71%; in the series with Mus musculus [14], 67%. The inhibition in vivo at 25 mg/kg came out at 67% in the series with Mus musculus [8], 20% in the series with Mus musculus [12] and 54% in the series with Mus musculus [15]. For the same compound, the inhibition in vivo at 10 mg/kg in the series with Mus musculus [9] was found to be 55%; in the series with Mus musculus [10], 63%; with Mus musculus [11] it was 27%.
As for `CN1CCN(c2nc(N)nc(/C=C/c3ccccc3Cl)n2)CC1`, the inhibitory constant (Ki) at Histamine H4 receptor [1] amounted to 4860 nM.
As to `Nc1nc(/C=C/c2cccc(Cl)c2)nc(N2CCNCC2)n1`, the Retention_time in the series with Liver microsome [16] is given as 3.55 min. In the series on Liver microsome [17], the Drug metabolism result was “metabolite_detected”.
`CN1CCN(c2nc(N)nc(/C=C/c3cccc(Cl)c3)n2)CC1`: the Activity entry (in [18]; in the series on Salmonella typhimurium; with HEK293) was “Non-toxic” each time. Also, the inhibition constant Ki on Histamine H4 receptor [19] came out at 854 nM; at Histamine H4 receptor [1] it was 253 nM. Further, the IC50 at Histamine H4 receptor [3] amounted to 439 nM. Moreover, the inhibition in vivo at 50 mg/kg was determined as 67% in the series on Mus musculus [7], 62% with Mus musculus [13] and 69% in the series with Mus musculus [14]. The inhibition in vivo at 25 mg/kg in the series on Mus musculus [8] came out at 65%; in the series with Mus musculus [12] it was 59%; in the series with Mus musculus [15], 58%. Moreover, the Retention_time with Liver microsome [16] is reported as 3.63 min. Besides, the inhibition in vivo at 10 mg/kg in the series on Mus musculus [20] is 50%. On CYP3A4, the inhibition at 25 µM came out at 58%. For the same compound, the selectivity ratio in [21] is more than 1000. Moreover, the Drug metabolism result in the series on Liver microsome [22] and with Liver microsome [23] was “metabolite_detected” in each case. Also, in series [6], the inhibition entry was “Active”.
`CN1CCN(c2nc(N)nc(/C=C/c3c[nH]c4ccccc34)n2)CC1` yielded an inhibition constant (Ki) on Histamine H4 receptor [1] of 2520 nM.
As to `Cc1ccc(/C=C/c2nc(N)nc(N3CCN(C)CC3)n2)cc1`, on Histamine H4 receptor [1], affinity was put at a Ki of 37400 nM.
Turning to `CN1CCN(c2nc(N)nc(/C=C/c3ccc(Cl)cc3Cl)n2)CC1`, the affinity on Histamine H4 receptor [1], expressed as Ki, was 9040 nM.
On Histamine H4 receptor [1], `CN1CCN(c2nc(N)nc(/C=C/c3cccc(C(F)(F)F)c3)n2)CC1` gave an inhibition constant Ki of 2450 nM.
Compound `CN1CCN(c2nc(N)nc(/C=C/c3ccc4ccccc4c3)n2)CC1` yielded an inhibition constant Ki at Histamine H4 receptor [1] of 3790 nM.
Same read-out and setting: as for `CN1CCN(c2nc(N)nc(/C=C/c3ccc(Cl)cc3)n2)CC1`, the figure is 4210 nM.
In turn, `CN1CCN(c2nc(N)nc(/C=C/c3cccc4ccccc34)n2)CC1` returned a Ki on Histamine H4 receptor [1] of 30000 nM.
On the same count and under the same terms, as for `CN1CCN(c2nc(N)nc(/C=C/c3cccc([N+](=O)[O-])c3)n2)CC1`, the figure is 2570 nM.
Consider `CN1CCN(c2nc(N)nc(/C=C/c3cccc(C#N)c3)n2)CC1`, for which the inhibition constant (Ki) at Histamine H4 receptor [1] was determined as 2640 nM.
`CN1CCN(c2nc(N)nc(/C=C/c3ccc(Cl)c(Cl)c3)n2)CC1` came in with a Ki on Histamine H4 receptor [1] of 1780 nM.
`Cc1ccccc1/C=C/c1nc(N)nc(N2CCN(C)CC2)n1` had a Ki on Histamine H4 receptor [1] of 2230 nM.

In general, Ki refers to the dissociation constant of the complex between target and ligand, obtained from inhibition or displacement. In general, IC50 refers to the midpoint of a concentration-inhibition curve. Usually inhibition in vivo stands for the percentage by which the read-out fell short of the control. Broadly, the inhibition is the share of the control response that was lost under treatment.
